The term IC50 denotes the concentration that gives 50% inhibition. Broadly, the Ki is a measure of affinity in units of concentration, obtained from inhibition or displacement.

Our source for the IC50 and Ki values is ChEMBL document CHEMBL1909046, “DrugMatrix in vitro pharmacology data”.

Series [1] deals with 5-hydroxytryptamine receptor 4 (Cavia porcellus, UniProt O70528). Type of series: cell membranes, Dunkin-Hartley, Striatum, Membrane.
A short description of series [2]: DRUGMATRIX: Sigma2 radioligand binding (ligand: [3H] Ifenprodil). Type of series: cell membranes, Rattus norvegicus, Wistar, Brain, Membrane. Conditions: Not Active = under 50% inhibition at 10 µM.
Series [3] has as its target T1, Vasoactive intestinal polypeptide receptor 1 (Homo sapiens, UniProt P32241). Further: in other assays of this panel Not Active means under 50% inhibition at 10 µM.
T1 sequence (P32241 whole entry): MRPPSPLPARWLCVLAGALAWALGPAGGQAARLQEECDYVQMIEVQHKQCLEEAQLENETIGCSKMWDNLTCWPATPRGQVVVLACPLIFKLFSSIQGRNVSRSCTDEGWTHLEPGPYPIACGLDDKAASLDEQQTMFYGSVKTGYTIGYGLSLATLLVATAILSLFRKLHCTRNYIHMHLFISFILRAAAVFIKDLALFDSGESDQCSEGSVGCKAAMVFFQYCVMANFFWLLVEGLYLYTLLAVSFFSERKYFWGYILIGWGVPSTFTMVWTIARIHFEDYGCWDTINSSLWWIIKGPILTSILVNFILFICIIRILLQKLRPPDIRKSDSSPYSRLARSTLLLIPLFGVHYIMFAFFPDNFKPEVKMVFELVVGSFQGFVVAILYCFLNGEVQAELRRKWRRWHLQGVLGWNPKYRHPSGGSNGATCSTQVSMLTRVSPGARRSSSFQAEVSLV
Format: cell membranes, Membrane. The note with it: ht-29.

In the next series the target is Mu-type opioid receptor (Homo sapiens, UniProt P35372). In words: DRUGMATRIX: Opiate mu (OP3, MOP) radioligand binding (ligand: [3H] Diprenorphine). Type of series: cell membranes, CHO-K1, Membrane. The note with it: cho-k1; Not Active = under 50% inhibition at 10 µM.
Chain of Mu-type opioid receptor (P35372 whole entry): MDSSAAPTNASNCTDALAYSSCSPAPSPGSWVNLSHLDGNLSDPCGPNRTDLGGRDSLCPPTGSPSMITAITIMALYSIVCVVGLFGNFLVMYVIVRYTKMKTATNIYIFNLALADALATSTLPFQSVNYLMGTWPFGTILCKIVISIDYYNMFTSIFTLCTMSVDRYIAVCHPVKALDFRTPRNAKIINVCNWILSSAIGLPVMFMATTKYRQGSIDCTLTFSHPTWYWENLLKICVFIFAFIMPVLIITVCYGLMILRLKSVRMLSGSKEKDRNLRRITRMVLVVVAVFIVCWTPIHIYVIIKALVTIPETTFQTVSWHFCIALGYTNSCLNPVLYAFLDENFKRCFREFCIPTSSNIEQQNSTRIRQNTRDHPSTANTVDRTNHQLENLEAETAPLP
The target of series [4] is Epidermal growth factor receptor (Homo sapiens, UniProt P00533). In words: DRUGMATRIX: Protein Tyrosine Kinase, EGF Receptor enzyme inhibition (substrate: Poly(Glu:Tyr)). Format: cell-based, Insect cells. Conditions: insect cells; Not Active = under 50% inhibition at 10 µM.
Chain of Epidermal growth factor receptor (P00533 whole entry): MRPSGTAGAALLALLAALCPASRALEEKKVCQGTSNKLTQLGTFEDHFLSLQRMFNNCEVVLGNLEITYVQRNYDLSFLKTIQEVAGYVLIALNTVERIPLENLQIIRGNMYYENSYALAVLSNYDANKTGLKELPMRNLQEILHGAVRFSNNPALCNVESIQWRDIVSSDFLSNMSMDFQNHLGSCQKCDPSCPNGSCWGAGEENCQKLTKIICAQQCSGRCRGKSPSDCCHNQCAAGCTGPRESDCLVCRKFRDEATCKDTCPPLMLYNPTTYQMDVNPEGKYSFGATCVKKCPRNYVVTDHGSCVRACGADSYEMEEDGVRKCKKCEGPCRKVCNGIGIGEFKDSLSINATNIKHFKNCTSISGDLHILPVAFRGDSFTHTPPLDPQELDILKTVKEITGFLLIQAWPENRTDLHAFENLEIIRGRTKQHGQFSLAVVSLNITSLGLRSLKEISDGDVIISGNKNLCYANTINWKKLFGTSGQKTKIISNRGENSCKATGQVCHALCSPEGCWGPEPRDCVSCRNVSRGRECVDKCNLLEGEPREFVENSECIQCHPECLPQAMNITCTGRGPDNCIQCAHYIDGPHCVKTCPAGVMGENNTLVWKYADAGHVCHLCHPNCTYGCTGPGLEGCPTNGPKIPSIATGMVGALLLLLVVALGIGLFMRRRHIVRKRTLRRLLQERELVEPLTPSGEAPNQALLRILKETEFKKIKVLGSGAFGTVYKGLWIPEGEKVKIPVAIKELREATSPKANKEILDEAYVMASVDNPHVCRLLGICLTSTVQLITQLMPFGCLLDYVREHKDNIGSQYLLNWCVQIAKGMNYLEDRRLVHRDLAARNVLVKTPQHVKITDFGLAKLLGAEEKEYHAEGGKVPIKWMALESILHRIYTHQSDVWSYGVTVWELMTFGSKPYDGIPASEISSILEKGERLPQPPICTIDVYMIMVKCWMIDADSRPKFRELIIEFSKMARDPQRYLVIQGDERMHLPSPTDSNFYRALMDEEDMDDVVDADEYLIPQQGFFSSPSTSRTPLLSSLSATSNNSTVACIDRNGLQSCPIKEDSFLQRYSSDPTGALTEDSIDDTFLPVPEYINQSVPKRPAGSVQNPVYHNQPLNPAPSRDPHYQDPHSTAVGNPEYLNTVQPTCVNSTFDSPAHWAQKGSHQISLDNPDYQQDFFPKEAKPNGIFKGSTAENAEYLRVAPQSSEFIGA
The target in a further series is Cytochrome P450 3A4 (Homo sapiens, UniProt P08684). The note with it: bti-tn-5b1-4. Further: in other assays of this panel Not Active means under 50% inhibition at 10 µM.
Chain of Cytochrome P450 3A4 (P08684 whole entry): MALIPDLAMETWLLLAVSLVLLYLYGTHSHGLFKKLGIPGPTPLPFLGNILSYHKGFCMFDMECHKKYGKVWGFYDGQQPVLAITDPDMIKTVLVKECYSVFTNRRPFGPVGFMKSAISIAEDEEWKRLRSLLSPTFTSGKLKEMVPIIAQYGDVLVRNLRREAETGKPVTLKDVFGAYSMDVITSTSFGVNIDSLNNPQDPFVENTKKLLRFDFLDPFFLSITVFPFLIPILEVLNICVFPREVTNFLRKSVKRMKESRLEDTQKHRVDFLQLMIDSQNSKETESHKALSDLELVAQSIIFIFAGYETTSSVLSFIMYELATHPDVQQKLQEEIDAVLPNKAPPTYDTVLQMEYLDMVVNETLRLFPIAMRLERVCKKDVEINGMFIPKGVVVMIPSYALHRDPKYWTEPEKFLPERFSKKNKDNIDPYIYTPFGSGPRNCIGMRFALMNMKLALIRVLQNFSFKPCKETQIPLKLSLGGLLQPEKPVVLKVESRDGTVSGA

Chain of 5-hydroxytryptamine receptor 4 (O70528 whole entry): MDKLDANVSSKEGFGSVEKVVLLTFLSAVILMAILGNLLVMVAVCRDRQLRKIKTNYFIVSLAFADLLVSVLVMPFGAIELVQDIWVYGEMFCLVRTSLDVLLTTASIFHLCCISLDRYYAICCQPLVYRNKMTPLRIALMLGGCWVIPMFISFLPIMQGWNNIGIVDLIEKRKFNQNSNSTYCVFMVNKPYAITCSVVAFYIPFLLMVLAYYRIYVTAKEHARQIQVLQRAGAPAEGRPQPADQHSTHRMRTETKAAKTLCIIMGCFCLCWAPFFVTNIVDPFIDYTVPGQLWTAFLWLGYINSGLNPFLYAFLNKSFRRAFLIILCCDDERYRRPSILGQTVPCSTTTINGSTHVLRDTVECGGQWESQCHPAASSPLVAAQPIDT

Turning to `O=C(O)c1cc(-c2ccc(F)cc2F)ccc1O` [DIFLUNISAL], the IC50 result (in series [1]; in series [2]; in series [3]; at Mu-type opioid receptor; in series [4]; against Cytochrome P450 3A4) was “Not Active” throughout. The Ki result (in series [2]; on Cytochrome P450 3A4) was “Not Active” throughout.

Turning to `C[S+](C)[O-]` [DIMETHYL SULFOXIDE], the IC50 result (in series [1]; in series [2]; in series [3]; on Mu-type opioid receptor; in series [4]; against Cytochrome P450 3A4) was “Not Active” throughout. For the same molecule, the Ki entry (in series [2]; on Cytochrome P450 3A4) was “Not Active” in each case.

For the molecule `CC1=NN(c2ccccc2)C(=O)C1` [EDARAVONE], the IC50 result (in series [1]; in series [2]; in series [3]; on Mu-type opioid receptor; in series [4]; at Cytochrome P450 3A4) was “Not Active” in each case. Moreover, the Ki result (in series [2]; on Cytochrome P450 3A4) was “Not Active” each time.

Turning to `C[C@]12CC[C@@H]3c4ccc(O)cc4CC[C@H]3[C@@H]1C[C@@H](O)[C@@H]2O` [ESTRIOL], the IC50 result (in series [1]; in series [2]; in series [3]; at Mu-type opioid receptor; in series [4]; at Cytochrome P450 3A4) was “Not Active” each time. Also, the Ki entry (in series [2]; on Cytochrome P450 3A4) was “Not Active” in each case.

As to `C#C[C@]1(O)CC[C@H]2[C@@H]3CCC4=CC(=O)CC[C@]4(C)[C@H]3CC[C@@]21C` [ETHISTERONE], the IC50 entry (in series [1]; in series [2]; in series [3]; at Mu-type opioid receptor; in series [4]; at Cytochrome P450 3A4) was “Not Active” in each case. The Ki result (in series [2]; on Cytochrome P450 3A4) was “Not Active” each time.

In the case of `CC(O)(P(=O)(O)O)P(=O)(O)O` [ETIDRONIC ACID], the IC50 entry (in series [1]; in series [2]; in series [3]; on Mu-type opioid receptor; in series [4]; against Cytochrome P450 3A4) was “Not Active” in each case. Also, the Ki entry (in series [2]; on Cytochrome P450 3A4) was “Not Active” in each case.

With `CN1CCN(c2c(F)cc3c(=O)c(C(=O)O)cn(CCF)c3c2F)CC1` [FLEROXACIN], the IC50 result (in series [1]; in series [2]; in series [3]; on Mu-type opioid receptor; in series [4]; on Cytochrome P450 3A4) was “Not Active” in each case. Moreover, the Ki entry (in series [2]; on Cytochrome P450 3A4) was “Not Active” in each case.

As to `O=c1[nH]c(=O)n([C@H]2C[C@H](O)[C@@H](CO)O2)cc1F` [FLOXURIDINE], the IC50 entry (in series [1]; in series [2]; in series [3]; at Mu-type opioid receptor; in series [4]; against Cytochrome P450 3A4) was “Not Active” throughout. Further, the Ki result (in series [2]; at Cytochrome P450 3A4) was “Not Active” each time.

For the molecule `COC(=O)Nc1nc2cc(C(=O)c3ccc(F)cc3)ccc2[nH]1` [FLUBENDAZOLE], the IC50 result (in series [1]; in series [2]; in series [3]; at Mu-type opioid receptor; in series [4]; against Cytochrome P450 3A4) was “Not Active” each time. Further, the Ki result (in series [2]; at Cytochrome P450 3A4) was “Not Active” throughout.

Take `CC(=O)OCC(=O)[C@@]1(O)CC[C@H]2[C@@H]3CCC4=CC(=O)CC[C@]4(C)[C@@]3(F)[C@@H](O)C[C@@]21C` [FLUDROCORTISONE ACETATE]: the IC50 entry (in series [1]; in series [2]; in series [3]; at Mu-type opioid receptor; in series [4]; on Cytochrome P450 3A4) was “Not Active” in each case. Further, the Ki result (in series [2]; on Cytochrome P450 3A4) was “Not Active” each time.

With `CCOC(=O)c1ncn2c1CN(C)C(=O)c1cc(F)ccc1-2` [FLUMAZENIL], the IC50 result (in series [1]; in series [2]; in series [3]; on Mu-type opioid receptor; in series [4]; at Cytochrome P450 3A4) was “Not Active” throughout. In addition, the Ki result (in series [2]; at Cytochrome P450 3A4) was “Not Active” throughout.

With `O=C(O)P(=O)(O)O` [FOSCARNET], the IC50 entry (in series [1]; in series [2]; in series [3]; at Mu-type opioid receptor; in series [4]; against Cytochrome P450 3A4) was “Not Active” in each case. Further, the Ki result (in series [2]; at Cytochrome P450 3A4) was “Not Active” each time.

Take `Cc1ccc(C)c(OCCCC(C)(C)C(=O)O)c1` [GEMFIBROZIL]: the concentration for half-maximal inhibition (IC50) entry (in series [1]; in series [2]; in series [3]; at Mu-type opioid receptor; in series [4]; on Cytochrome P450 3A4) was “Not Active” in each case. Further, the Ki result (in series [2]; on Cytochrome P450 3A4) was “Not Active” in each case.

Turning to `CCC1=C(C)CN(C(=O)NCCc2ccc(S(=O)(=O)NC(=O)N[C@H]3CC[C@H](C)CC3)cc2)C1=O` [GLIMEPIRIDE], the IC50 result (in series [1]; in series [2]; in series [3]; at Mu-type opioid receptor; in series [4]; on Cytochrome P450 3A4) was “Not Active” throughout. The Ki entry (in series [2]; on Cytochrome P450 3A4) was “Not Active” each time.

With `Nc1cc(-c2ccncc2)c[nH]c1=O` [INAMRINONE], the IC50 entry (in series [1]; in series [2]; in series [3]; at Mu-type opioid receptor; in series [4]; against Cytochrome P450 3A4) was “Not Active” in each case. Also, the Ki entry (in series [2]; at Cytochrome P450 3A4) was “Not Active” each time.

For the molecule `CCCCC1=NC2(CCCC2)C(=O)N1Cc1ccc(-c2ccccc2-c2nnn[nH]2)cc1` [IRBESARTAN], the IC50 entry (in series [1]; in series [2]; in series [3]; on Mu-type opioid receptor; in series [4]; against Cytochrome P450 3A4) was “Not Active” in each case. In addition, the inhibition constant Ki entry (in series [2]; on Cytochrome P450 3A4) was “Not Active” each time.

In the case of `CN1CCC(=C2c3ccccc3CC(=O)c3sccc32)CC1` [KETOTIFEN], the IC50 result (in series [1]; in series [2]; in series [3]; at Mu-type opioid receptor; in series [4]; at Cytochrome P450 3A4) was “Not Active” in each case. The Ki entry (in series [2]; on Cytochrome P450 3A4) was “Not Active” in each case.

With `C[N+](C)(C)C[C@H](O)CC(=O)[O-]` [LEVOCARNITINE], the IC50 result (in series [1]; in series [2]; in series [3]; at Mu-type opioid receptor; in series [4]; on Cytochrome P450 3A4) was “Not Active” in each case. Also, the Ki result (in series [2]; at Cytochrome P450 3A4) was “Not Active” in each case.

For `CCn1cc(C(=O)O)c(=O)c2cc(F)c(N3CCNC(C)C3)c(F)c21` (centres undefined) [LOMEFLOXACIN], the IC50 result (in series [1]; in series [2]; in series [3]; at Mu-type opioid receptor; in series [4]; at Cytochrome P450 3A4) was “Not Active” in each case. Further, the Ki entry (in series [2]; at Cytochrome P450 3A4) was “Not Active” throughout.

With `CN1CCCC(CN2c3ccccc3Sc3ccccc32)C1` (centres undefined) [MEPAZINE], the IC50 result is “Not Active” in series [1]; 631 nM in series [2] (read-out: IC50); “Not Active” in series [3]; “Not Active” on Mu-type opioid receptor; “Not Active” in series [4]; “Not Active” against Cytochrome P450 3A4. For the same molecule, the Ki in series [2] (read-out: Ki) is 388 nM; on Cytochrome P450 3A4 it was “Not Active”.

On to `Cc1cccc(C)c1NC(=O)C1CCCCN1C` (centres undefined) [MEPIVACAINE], for which the IC50 entry (in series [1]; in series [2]; in series [3]; on Mu-type opioid receptor; in series [4]; on Cytochrome P450 3A4) was “Not Active” throughout. The Ki result (in series [2]; at Cytochrome P450 3A4) was “Not Active” each time.

As to `CN(C)C(=N)NC(=N)N` [METFORMIN], the IC50 entry (in series [1]; in series [2]; in series [3]; at Mu-type opioid receptor; in series [4]; at Cytochrome P450 3A4) was “Not Active” each time. Besides, the Ki entry (in series [2]; at Cytochrome P450 3A4) was “Not Active” throughout.

For `CC(C)(C)NCC(O)COc1cccc2c1CC(O)C(O)C2` (centres undefined) [NADOLOL], the IC50 result (in series [1]; in series [2]; in series [3]; at Mu-type opioid receptor; in series [4]; on Cytochrome P450 3A4) was “Not Active” in each case. Further, the Ki entry (in series [2]; on Cytochrome P450 3A4) was “Not Active” in each case.
